From patent US20260062426A1, “CYCLIN DEPENDENT KINASE DEGRADERS AND METHODS OF USE THEREOF” (Differentiated Therapeutics Inc, priority 2023, published 2026) come the findings set out here.

SMILES strings stand for the structures.

Assay type in all cases: cell-based
In one assay the target is T1, CCNE1 (Homo sapiens, UniProt P24864+P24941).
T1 construct: host or cells: HEK293
The experiment in a line: CCNE1 HIBIT PQ (protein quantification), degradation. Particulars: for CCNE1 HIBIT PQ Max (%): Max = Maximum; for DC50: PQ = Protein Quantification. In outline: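 HEK293 cells carrying HiBiT-tagged CCNE1 were grown in EMEM with 10% FBS and seeded in 384-well plates at 1.6×10⁵ cells/well in 50 uL, then incubated overnight at 37° C and 5% CO₂. Compound treatment lasted 6 hours, and CCNE1 protein was then measured with a HiBiT assay. High control was 0.1% DMSO-treated cells and low control was culture medium only. Maximal degradation and DC50 were derived from these readings.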

In another assay the target is T2, CDK9 (Homo sapiens, UniProt P50750).
T2 construct: host or cells: HEK293
Briefly: CDK9 HIBIT PQ (protein quantification), degradation. The following applies: for Dmax: Max = Maximum; for DC50: PQ = Protein Quantification. A digest of the protocol: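 Maximal degradation, Dmax and DC50 come from HiBiT assay readings of CDK9 protein in compound-treated HEK293 cells that express HiBiT-tagged CDK9. The cells were grown in DMEM with 10% FBS and seeded at 1.6×10^5 cells/well in 50 uL in 384-well plates before overnight incubation at 37° C and 5% CO2. Cells treated with 0.1% DMSO set the high control, and medium only set the low control.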

Another assay addresses T3, CDK2 (Homo sapiens, UniProt P24941).
T3 construct: host or cells: HEK293
The experiment in a line: CDK2 HIBIT PQ (protein quantification), degradation. The following applies: for CDK2 HIBIT PQ Max (%): Max = Maximum; for DC50: PQ = Protein Quantification. A digest of the protocol: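 Maximal degradation and DC50 were obtained from luminescence readings of HEK293 cells expressing HiBiT-tagged CDK2. The cells, grown in DMEM with 10% FBS, were seeded at 1.6×10^5 cells/well in 50 uL in 384-well plates and incubated overnight at 37° C and 5% CO2 before 6 hours of compound treatment. HiBiT reagent (Nano-Glo HiBiT lytic buffer, lytic substrate, LgBiT protein) was then added at 20 μL, and plates were shaken for 20 minutes at room temperature before reading on an EnVision, against a high control of 0.1% DMSO and a low control of medium only.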

T2 sequence (P50750 whole entry): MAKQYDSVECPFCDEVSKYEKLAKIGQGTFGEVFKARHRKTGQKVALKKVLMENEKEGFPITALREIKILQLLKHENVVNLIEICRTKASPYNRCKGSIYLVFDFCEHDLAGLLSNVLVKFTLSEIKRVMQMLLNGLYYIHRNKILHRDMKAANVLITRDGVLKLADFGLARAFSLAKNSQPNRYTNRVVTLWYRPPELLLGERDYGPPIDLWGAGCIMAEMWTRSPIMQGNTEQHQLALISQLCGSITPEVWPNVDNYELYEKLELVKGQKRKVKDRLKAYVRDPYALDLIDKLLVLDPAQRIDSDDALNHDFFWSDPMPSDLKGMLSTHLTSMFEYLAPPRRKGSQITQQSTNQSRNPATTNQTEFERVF

As to `CC(C)Oc1c(-c2cn[nH]c2)ncn2nc(Nc3ccc(S(=O)(=O)N4CCCC(CN5CCC(c6ccc7c(N8CCC(=O)NC8=O)nn(C)c7c6)C(C)C5)C4)cc3F)nc12` (stereo not drawn) [Compound 92], at CCNE1, the “CCNE1 HIBIT PQ Max (%)” value is given as 82% and it took 4.11 nM to reach half-maximal degradation (DC50). Further, at CDK9, the Dmax (usually the largest share of the target that was removed) amounted to 77% and the half-maximal degradation concentration (DC50) – broadly, the concentration at which degradation of the target reaches its halfway point – is 21.7 nM. Also, at CDK2, the “CDK2 HIBIT PQ Max (%)” value was determined as 88% and it took 1.7 nM to reach half-maximal degradation (DC50).

Regarding `CC(C)Oc1c(-c2cn[nH]c2)ncn2nc(Nc3ccc(S(=O)(=O)N4CCCC(CN5CCC(c6ccc7c(N8CCC(=O)NC8=O)nn(C)c7c6)CC5(C)C)C4)cc3F)nc12` (stereo not drawn) [Compound 93, 1-(6-(1-((1-((3-fluoro-4-((8-isopropoxy-7-(1H-pyrazol-4-yl)-[1,2,4]triazolo[1,5-c]pyrimidin-2-yl)amino)phenyl)sulfonyl)piperidin-3-yl)methyl)-2,2-dimethylpiperidin-4-yl)-1-methyl-1H-indazol-3-yl)dihydropyrimidine-2,4(1H,3H)-dione], at CCNE1, the “CCNE1 HIBIT PQ Max (%)” value is reported as 56% and it took 1.22 nM to reach half-maximal degradation (DC50). On CDK9, the Dmax was found to be 56% and the DC50 came out at 5.87 nM. Besides, at CDK2, the “CDK2 HIBIT PQ Max (%)” value is 77% and the DC50 turned out to be 0.7 nM.
